In publication PMC5746060, “General and Modular Strategy for Designing Potent, Selective, and Pharmacologically Compliant Inhibitors of Rhomboid Proteases” (Cell Chemical Biology, 2017):
Starred links: 1 amine or outer side, 2 acyl side, 3 side chain; linkers in the order of their positions; H or OH if unused. Non-standard residues stand in square brackets, D forms with d. Residues, ends and D or L forms follow the SMILES beside them. *: point of attachment. NH(4-phenylbutyl) = c1ccc(CCCCN*)cc1; X1 = C[C@H](N[*:1])C(=O)C(=O)[*:2]

Molecular target: T1, endogenous YqgP (Bacillus subtilis, UniProt P54493)
T1 construct: cleaved to about 75% conversion by the endogenous YqgP; endogenous in cells; host or cells: Bacillus subtilis 168 ydcA::neo, xkdE::substrate (BS87)
T1 sequence (P54493 whole entry): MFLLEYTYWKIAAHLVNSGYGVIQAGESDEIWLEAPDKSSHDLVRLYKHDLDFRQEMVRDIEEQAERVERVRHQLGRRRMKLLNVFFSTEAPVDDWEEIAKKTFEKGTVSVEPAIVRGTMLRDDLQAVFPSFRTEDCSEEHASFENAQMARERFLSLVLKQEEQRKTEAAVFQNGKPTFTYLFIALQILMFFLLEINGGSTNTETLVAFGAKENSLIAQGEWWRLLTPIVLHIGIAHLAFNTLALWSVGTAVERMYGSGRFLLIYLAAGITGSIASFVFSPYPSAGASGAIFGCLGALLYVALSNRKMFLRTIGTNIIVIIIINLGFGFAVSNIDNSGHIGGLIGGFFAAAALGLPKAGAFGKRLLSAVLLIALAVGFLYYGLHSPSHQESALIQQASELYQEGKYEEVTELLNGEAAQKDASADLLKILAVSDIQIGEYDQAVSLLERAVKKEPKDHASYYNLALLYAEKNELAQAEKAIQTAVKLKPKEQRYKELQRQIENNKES
Assay: inhibition of endogenous YqgP in live B. subtilis (LacYTM2 substrate cleavage, western blot)
Assay type: cell-based, Bacillus subtilis 168
Conditions: for % substrate conversion: YqgP WT (BS87)
Method: The substrate MBP-FLAG-LacYTM2-Trx ([Strisovsky et al., 2009]) was expressed in wild-type E. coli NR698 with genetically permeabilized outer membrane ([Ruiz et al., 2005]) in the presence of increasing concentrations of inhibitors as described in STAR Methods. Substrate cleavage was measured in cell lysates by immunoblotting for FLAG and quantified using near-infrared fluorescence. The reported in vivo IC50 values are best-fit means with SD representative of 2–3 measurements. DMSO, dimethylsulfoxide vehicle control; KO, E. coli glpG::tet. […] The substrate AmyESP-MBP-FLAG-LacYTM2-Trx-HA was expressed in Bacillus subtilis 168 (ydcA::neo, xdkE::AmyESP-MBP-LacYTM2-Trx(erm, lin)) (BS87) in the presence of increasing concentrations of inhibitors as described in STAR Methods. Substrate cleavage was detected in cell lysates by immunoblotting for FLAG and detection by near-infrared fluorescence. […] This treatment was necessary because the specific cleavage product could not be resolved sufficiently well from the non-specific bands to be integrated separately. DMSO, dimethylsulfoxide vehicle control; YqgP KO, Bacillus subtilis 168 (ydcA::neo, yqgP::tet, xdkE::AmyESP-MBP-LacYTM2-Trx(erm, lin)) (BS88).
We then extended the range of organisms to Bacillus subtilis, a representative of Gram-positive bacteria, which have a thick cell wall and include major pathogens such as Staphylococcus, Listeria, Streptococcus, and others. Since the endogenous substrate of the B. subtilis rhomboid protease YqgP is unknown, and no robust and rescuable phenotypes have been reported for YqgP, we focused on inhibition of cleavage of a model substrate.
For measuring the inhibition of YqgP in vivo, the B. subtilis strains BS87 and its yqgP knock-out derivative BS88, generated in this work (see Constructs and Cloning section), were used as follows. The chimeric LacYTM2 substrate AmyEsp-MBP-FLAG-LacYTM2-Trx-HA (this work) was expressed under control of xylose promoter from the xdkE genomic locus. Fresh LB medium, supplemented with appropriate antibiotic, was inoculated with a few colonies of the B. subtilis strain grown overnight on selective LB agar plate and pre-culture was grown for 2 h at 37°C to OD600 = 1. Pre-culture was then diluted with fresh LB medium to the density of OD600 = 0.05. At this point, the expression of LacYTM2 was induced by adding 1% (w/v) D-(+)-xylose (Sigma), rhomboid inhibitors were added at a range of concentrations, and the cultures were further incubated for 2.5 h at 37°C (reaching OD600 ∼ 1). Steady-state conversion of the substrate was evaluated by western blotting with near-infrared fluorescence detection as described ([Ticha et al., 2017]), substracting the intensity of non-specific bands, closely co-migrating with the specific rhomboid-formed N-terminal cleavage product of the substrate.

CC(=O)N[C@@H](CCCNC(=N)N)C(=O)N[C@H](C(=O)N[C@@H](CCCNC(=N)N)C(=O)N[C@@H](Cc1c[nH]cn1)C(=O)N[C@@H](C)C(=O)C(=O)NCCCCc1ccccc1)C(C)C [compound 11, Ac-RVRHA-CONH-phenylbutyl] (Ac-RVRH[X1]-{NH(4-phenylbutyl)})
IC50: 5 to 10 nM
% substrate conversion (0.6 nM compound 11): 73%
% substrate conversion (1.2 nM compound 11): 67%
% substrate conversion (2.5 nM compound 11): 54%
% substrate conversion (5 nM compound 11): 52%
% substrate conversion (10 nM compound 11): 7%
% substrate conversion (20 nM compound 11): 4%
% substrate conversion (50 nM compound 11): 0%
inhibition of substrate cleavage (50 nM in growth media): completely inhibited
